Reference: ChEMBL document CHEMBL6087476, “Positive Charge-Concentrated Dimeric Lipopeptides with Enhanced Protease Resistance: A Potential Solution for Systemic Bacterial Infections” (J Med Chem, 2025)
≈ marks a conversion by molar mass, not a printed value. Calls of active or inactive are those of the source. The rule behind the calls is not given here.

How the values were obtained:
Escherichia coli [1] = assay: Antimicrobial activity against Escherichia coli ATCC 25922 assessed as increase in absorbance incubated for 20 to 22 hrs in presence of Fe3+ physiological salt; type: functional, organism-based; conditions: time 20-22 hrs
Escherichia coli [2] = assay: Antimicrobial activity against Escherichia coli ATCC 25922 assessed as increase in absorbance at 8 mg/ml incubated for 8 hrs in presence of chymotrypsin; type: functional, organism-based
Cell membrane [3] = assay: Induction of depolarization of cytoplasmic membrane (CM) in Escherichia coli ATCC 25922 assessed as fluorescence changes at 1/2 to 3 times of MIC by fluorescent probe DiSC3-5 assay; type: subcellular; conditions: time 1000-3000 sec
Escherichia coli [4] = assay: Inhibition of respiratory chain dehydrogenase (RCD) activity in Escherichia coli ATCC 25922 at 4 uM incubated for 90 mins by TTC assay
Escherichia coli [5] = assay: Antimicrobial activity against Escherichia coli K99 assessed as increase in absorbance incubated for 20 to 22 hrs; type: functional; conditions: time 20-22 hrs
Escherichia coli [6] = assay: Induction of membrane damage in Escherichia coli ATCC 25922 assessed as ruptured membrane by analysing green fluorescence at 8 uM measured after 1 hr incubation by SYTO - live and dead staining based fluorescence microscopy; type: functional, organism-based
Salmonella typhimurium [7] = assay: Antimicrobial activity against Salmonella typhimurium 7731 assessed as increase in absorbance incubated for 20 to 22 hrs; type: functional, Salmonella enterica subsp. enterica serovar Typhimurium; conditions: Salmonella enterica, time 20-22 hrs
Escherichia coli [8] = assay: Induction of membrane damage in Escherichia coli ATCC 25922 assessed as damaged membrane surface (irregular vesicles protrusions) at 8 uM measured after 1 hr incubation by SEM analysis; type: functional, organism-based
Escherichia coli [9] = assay: Antimicrobial activity against Escherichia coli ATCC 25922 assessed as increase in absorbance incubated for 20 to 22 hrs in presence of NH4+ physiological salt; type: functional, organism-based; conditions: time 20-22 hrs
Escherichia coli [10] = assay: Antimicrobial activity against Escherichia coli ATCC 25922 assessed as increase in absorbance incubated for 20 to 22 hrs in presence of […] physiological salt; type: functional, organism-based; conditions: time 20-22 hrs
Escherichia coli [11] = assay: Antimicrobial activity against Escherichia coli ATCC 25922 assessed as increase in absorbance incubated for 4 hrs in presence of 50% serum; type: functional, organism-based
Escherichia coli [12] = assay: Antimicrobial activity against Escherichia coli ATCC 25922 assessed as increase in absorbance incubated for 20 to 22 hrs in presence of Mg2+ physiological salt; type: functional, organism-based; conditions: time 20-22 hrs
Enterococcus faecalis = assay: Antimicrobial activity against Enterococcus faecalis 29212 assessed as increase in absorbance incubated for 20 to 22 hrs; type: functional; conditions: time 20-22 hrs
Staphylococcus aureus [13] = assay: Antimicrobial activity against methicillin-resistant Staphylococcus aureus 43300 assessed as increase in absorbance incubated for 20 to 22 hrs; type: functional; conditions: time 20-22 hrs
Escherichia coli [14] = assay: Antimicrobial activity against Escherichia coli ATCC 25922 assessed as increase in absorbance incubated for 20 to 22 hrs in presence of K+ physiological salt; type: functional, organism-based; conditions: time 20-22 hrs
Lipopolysaccharide (LPS) = assay: Binding affinity to Escherichia coli O111:B4 Lipopolysaccharide by fluorescent probe BODIPYTR-cadaverine (BC) assay; conditions: dose 1-16 µM
Acinetobacter baumannii [15] = assay: Antimicrobial activity against Acinetobacter baumannii AB1902 assessed as increase in absorbance incubated for 20 to 22 hrs; type: functional; conditions: time 20-22 hrs
Escherichia coli [16] = assay: Reduction in intracellular ATP level in Escherichia coli ATCC 25922 at 2 uM measured after 1 hr incubation by Enhanced ATP assay kit; type: functional; set-up: scale not given: the % may be the effect or the level left
Escherichia coli [17] = assay: Resistance fold, ratio of MIC for Escherichia coli ATCC 25922 measured after 30 day passage period to MIC for Escherichia coli ATCC 25922; type: functional
Escherichia coli [18] = assay: Induction of membrane damage in Escherichia coli ATCC 25922 assessed as ruptured membrane by analysing red fluorescence at 8 uM measured after 1 hr incubation by PI - live and dead staining based fluorescence microscopy; type: functional, organism-based
Pseudomonas aeruginosa [19] = assay: Antimicrobial activity against Pseudomonas aeruginosa 27853 assessed as increase in absorbance incubated for 20 to 22 hrs; type: functional; conditions: time 20-22 hrs
Escherichia coli [20] = assay: Antimicrobial activity against Escherichia coli ATCC 25922 assessed as increase in absorbance at 8 mg/ml incubated for 8 hrs in presence of pepsin; type: functional, organism-based
Escherichia coli [21] = assay: Antimicrobial activity against Escherichia coli ATCC 25922 assessed as increase in absorbance incubated for 4 hrs in presence of 12.5% serum; type: functional, organism-based
[22] = system: Staphylococcus epidermidis; assay: Antimicrobial activity against Staphylococcus epidermidis 12228 assessed as increase in absorbance incubated for 20 to 22 hrs; type: functional; conditions: time 20-22 hrs
Staphylococcus aureus [23] = assay: Antimicrobial activity against Staphylococcus aureus 11011 assessed as increase in absorbance incubated for 20 to 22 hrs; type: functional; conditions: time 20-22 hrs
Escherichia coli [24] = assay: Antimicrobial activity against Escherichia coli ATCC 25922 assessed as increase in absorbance incubated for 20 to 22 hrs; type: functional; conditions: time 20-22 hrs
Acinetobacter baumannii [25] = assay: Antimicrobial activity against Acinetobacter baumannii AB1901 assessed as increase in absorbance incubated for 20 to 22 hrs; type: functional; conditions: time 20-22 hrs
Cell membrane [26] = assay: Induction of Outer membrane permeability in Escherichia coli ATCC 25922 incubated for 30 mins by N-phenyl-1-naphthylamine (NPN) uptake assay; type: subcellular; conditions: dose 1-16 µM
HEK-293T = assay: Cytotoxicity against human HEK293T cells assessed as cell death measured after 18 to 24 hrs by MTT assay; type: functional; conditions: time 18-24 hrs
Escherichia coli [27] = assay: Antibiofilm activity against Escherichia coli ATCC 25922 biofilm assessed as removal of matured biofilm at 16 uM; type: functional, organism-based
Cell membrane [28] = assay: Induction of depolarization of cytoplasmic membrane (CM) in Escherichia coli ATCC 25922 assessed as fluorescence changes at 1/2 to 3 times of MIC measured after 1000 to 3000 seconds by fluorescent probe DiSC3-5 assay; type: subcellular; conditions: time 1000-3000 sec
Escherichia coli [29] = assay: Antibiofilm activity against Escherichia coli ATCC 25922 biofilm assessed as inhibition of biofilm formation at 2 uM; type: functional, organism-based
Escherichia coli [30] = assay: Antimicrobial activity against Escherichia coli K88 assessed as increase in absorbance incubated for 20 to 22 hrs; type: functional; conditions: time 20-22 hrs
[31] = Hemolytic activity in healthy human RBC assessed as hemolysis incubated for 1 hr by microplate reader; type: toxicity, cell-based; conditions: erythrocyte
Staphylococcus aureus [32] = assay: Antimicrobial activity against Staphylococcus aureus 25923 assessed as increase in absorbance incubated for 20 to 22 hrs; type: functional; conditions: time 20-22 hrs
Escherichia coli [33] = assay: Antimicrobial activity against Escherichia coli ATCC 25922 assessed as increase in absorbance at MIC concentration in presence of […] ug/ml Lipopolysaccharide incubated for 8 hrs; type: functional, organism-based; conditions: dose 64.0 µg/ml
Salmonella typhimurium [34] = assay: Antimicrobial activity against Salmonella typhimurium 14028 assessed as increase in absorbance incubated for 20 to 22 hrs; type: functional, Salmonella enterica subsp. enterica serovar Typhimurium; conditions: Salmonella enterica, time 20-22 hrs
Escherichia coli [35] = assay: Antimicrobial activity against Escherichia coli ATCC 25922 assessed as increase in absorbance at MIC concentration in presence of < 8 ug/ml Lipopolysaccharide incubated for 8 hrs; type: functional, organism-based; conditions: dose < 8.0 µg/ml
Escherichia coli [36] = assay: Induction of ROS accumulation in Escherichia coli ATCC 25922 at 4 uM incubated for 30 mins by DCFH-DA assay; type: functional, organism-based
Escherichia coli [37] = assay: Antimicrobial activity against Escherichia coli ATCC 25922 assessed as increase in absorbance incubated for 4 hrs in presence of 25% serum; type: functional, organism-based
Escherichia coli [38] = assay: Induction of membrane damage in Escherichia coli ATCC 25922 assessed as damaged membrane surface by analysing leakage (hollow interiors) at 8 uM measured after 1 hr incubation by TEM analysis; type: functional, organism-based
Staphylococcus aureus [39] = assay: Antimicrobial activity against Staphylococcus aureus 29213 assessed as increase in absorbance incubated for 20 to 22 hrs; type: functional; conditions: time 20-22 hrs
Cell membrane [40] = assay: Induction of cytoplasmic membrane (CM) permeabilization in Escherichia coli ATCC 25922 assessed as utilization of ONPG at 1/2 MIC; type: subcellular
Pseudomonas aeruginosa [41] = assay: Antimicrobial activity against Pseudomonas aeruginosa 25349 assessed as increase in absorbance incubated for 20 to 22 hrs; type: functional; conditions: time 20-22 hrs
Escherichia coli [42] = assay: Antimicrobial activity against Escherichia coli ATCC 25922 assessed as increase in absorbance at 8 mg/ml incubated for 8 hrs in presence of trypsin; type: functional, organism-based
[43] = Cytotoxicity against porcine IPEC-J2 cells assessed as cell death measured after 18 to 24 hrs by MTT assay; type: functional; conditions: Sus scrofa, time 18-24 hrs
RAW264.7 = assay: Cytotoxicity against mouse RAW264.7 cells assessed as cell death measured after 18 to 24 hrs by MTT assay; type: functional; conditions: time 18-24 hrs

With CCCCCCCCCC(=O)NCCCC[C@H](NC(=O)[C@@H](N)CSSC[C@H](N)C(=O)N[C@@H](CCCCNC(=O)CCCCCCCCC)C(=O)NCC(=O)NCC(=O)NCC(=O)N[C@H](CCCNC(=N)N)C(=O)N[C@@H](CCCNC(=N)N)C(=O)N[C@@H](CCCNC(=N)N)C(=O)N1CCC[C@H]1C(=O)O)C(=O)NCC(=O)NCC(=O)NCC(=O)N[C@H](CCCNC(=N)N)C(=O)N[C@@H](CCCNC(=N)N)C(=O)N[C@@H](CCCNC(=N)N)C(=O)N1CCC[C@H]1C(=O)O the Activity (Escherichia coli [1]) was “Active”, the Activity (Escherichia coli [2]) was “Active; Negligible Alteration In Mic Values Found” and the Activity (Cell membrane [3]) was “Time-dependent-effect”. For the same compound, the inhibition (Escherichia coli [4]) was “Active”, the MIC (Escherichia coli [5]) was 8 µM (≈ 18.2 µg/mL) and the Activity (Escherichia coli [6]) was “Active”. The MIC (Salmonella typhimurium [7]) was 8 µM (≈ 18.2 µg/mL), the Activity (Escherichia coli [8]) was “Active” and the Activity (Escherichia coli [9]) was “Active”. For the same compound, the Activity (Escherichia coli [10]) was “Active”, the Activity (Escherichia coli [11]) was “Active” and the Activity (Escherichia coli [12]) was “Active”. The MIC (Enterococcus faecalis) was 8 µM (≈ 18.2 µg/mL), the MIC (Staphylococcus aureus [13]) was 8 µM (≈ 18.2 µg/mL) and the Activity (Escherichia coli [14]) was “Active”. The Activity (Lipopolysaccharide (LPS)) was “Dose-dependent-effect”, the MIC (Acinetobacter baumannii [15]) was 16 µM (≈ 36.5 µg/mL) and the Activity (Escherichia coli [16]) was roughly 40%. The “fold change (FC)” value (Escherichia coli [17]) was “<=2”, the Activity (Escherichia coli [18]) was “Active” and the MIC (Pseudomonas aeruginosa [19]) was 8 µM (≈ 18.2 µg/mL). For the same compound, the Activity (Escherichia coli [20]) was “Active; Negligible Alteration In Mic Values Found”, the Activity (Escherichia coli [21]) was “Active” and the MIC [22] was 8 µM (≈ 18.2 µg/mL). For the same compound, the MIC (Staphylococcus aureus [23]) was 8 µM (≈ 18.2 µg/mL), the MIC (Escherichia coli [24]) was 4 µM (≈ 9.12 µg/mL) and the MIC (Acinetobacter baumannii [25]) was 4 µM (≈ 9.12 µg/mL). For the same compound, the Activity (Cell membrane [26]) was “Dose-dependent-effect”, the IC10 (HEK-293T) was 256 µM and the Activity (Escherichia coli [27]) was “Active”. For the same compound, the Activity (Cell membrane [28]) was “Dose-dependent-effect”, the Activity (Escherichia coli [29]) was “Active” and the MIC (Escherichia coli [30]) was 4 µM (≈ 9.12 µg/mL). For the same compound, the HC10 [31] was 256 µM, the MIC (Staphylococcus aureus [32]) was 8 µM (≈ 18.2 µg/mL) and the Activity (Escherichia coli [33]) was “inactive”. For the same compound, the MIC (Salmonella typhimurium [34]) was 4 µM (≈ 9.12 µg/mL), the Activity (Escherichia coli [35]) was “Active” and the Activity (Escherichia coli [36]) was “Active”. The Activity (Escherichia coli [37]) was “Active”, the Activity (Escherichia coli [38]) was “Active” and the MIC (Staphylococcus aureus [39]) was 8 µM (≈ 18.2 µg/mL). For the same compound, the Activity (Cell membrane [40]) was “Active”, the MIC (Pseudomonas aeruginosa [41]) was 4 µM (≈ 9.12 µg/mL) and the Activity (Escherichia coli [42]) was “Active; Negligible Alteration In Mic Values Found”. The IC10 [43] was 256 µM and the IC10 (RAW264.7) was 256 µM.
